Measurements as given in ChEMBL document CHEMBL1909046, “DrugMatrix in vitro pharmacology data”.

What was measured:
[1] = target: 5-hydroxytryptamine receptor 6 (Homo sapiens, UniProt P50406); type: cell membranes, HeLa, Membrane; conditions: hela; also: in other assays of this panel Not Active means under 50% inhibition at 10 µM
[2] = DRUGMATRIX: Tumor Necrosis Factor (TNF), Non-Selective radioligand binding (ligand: [125I] TNF-alpha); type: cell membranes, Membrane; conditions: u-937; Not Active = under 50% inhibition at 10 µM
[3] = DRUGMATRIX: beta-Lactamase enzyme inhibition (substrate: Nitrocefin); parameters: species or system Bacillus cereus; conditions: Not Active = under 50% inhibition at 10 µM
[4] = DRUGMATRIX: ATPase, Na+/K+ enzyme inhibition (substrate: ATP); type: tissue-based, Sus scrofa, Heart; conditions: Not Active = under 50% inhibition at 10 µM
[5] = target: T1, 5-hydroxytryptamine receptor 2C (Homo sapiens, UniProt P28335); assay: DRUGMATRIX: Serotonin (5-Hydroxytryptamine) 5-HT2C radioligand binding (ligand: [3H] Mesulergine); type: cell membranes, CHO-K1, Membrane; conditions: cho-k1; Not Active = under 50% inhibition at 10 µM
T1 sequence (P28335 whole entry): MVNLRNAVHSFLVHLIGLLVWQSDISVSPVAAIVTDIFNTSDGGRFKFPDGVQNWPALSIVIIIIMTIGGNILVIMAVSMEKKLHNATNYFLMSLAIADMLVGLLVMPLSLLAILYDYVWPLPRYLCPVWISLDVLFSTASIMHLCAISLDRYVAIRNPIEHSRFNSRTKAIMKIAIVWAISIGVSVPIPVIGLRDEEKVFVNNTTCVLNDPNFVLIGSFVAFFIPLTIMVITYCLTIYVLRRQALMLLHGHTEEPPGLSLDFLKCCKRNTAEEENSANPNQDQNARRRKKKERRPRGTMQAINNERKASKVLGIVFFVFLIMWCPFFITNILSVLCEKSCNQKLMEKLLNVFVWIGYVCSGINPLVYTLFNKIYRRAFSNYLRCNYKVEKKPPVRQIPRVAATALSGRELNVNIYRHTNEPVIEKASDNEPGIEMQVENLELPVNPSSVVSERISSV

[6] = target: Prostaglandin G/H synthase 1 (Homo sapiens, UniProt P23219); assay: biochemical; type: tissue-based, Platelet; conditions: platelet;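 also: inhibition of COX-1 enzyme activity, with arachidonic acid supplied as substrate; in other assays of this panel Not Active means under 50% inhibition at 10 µM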
Sequence of Prostaglandin G/H synthase 1 (P23219 whole entry): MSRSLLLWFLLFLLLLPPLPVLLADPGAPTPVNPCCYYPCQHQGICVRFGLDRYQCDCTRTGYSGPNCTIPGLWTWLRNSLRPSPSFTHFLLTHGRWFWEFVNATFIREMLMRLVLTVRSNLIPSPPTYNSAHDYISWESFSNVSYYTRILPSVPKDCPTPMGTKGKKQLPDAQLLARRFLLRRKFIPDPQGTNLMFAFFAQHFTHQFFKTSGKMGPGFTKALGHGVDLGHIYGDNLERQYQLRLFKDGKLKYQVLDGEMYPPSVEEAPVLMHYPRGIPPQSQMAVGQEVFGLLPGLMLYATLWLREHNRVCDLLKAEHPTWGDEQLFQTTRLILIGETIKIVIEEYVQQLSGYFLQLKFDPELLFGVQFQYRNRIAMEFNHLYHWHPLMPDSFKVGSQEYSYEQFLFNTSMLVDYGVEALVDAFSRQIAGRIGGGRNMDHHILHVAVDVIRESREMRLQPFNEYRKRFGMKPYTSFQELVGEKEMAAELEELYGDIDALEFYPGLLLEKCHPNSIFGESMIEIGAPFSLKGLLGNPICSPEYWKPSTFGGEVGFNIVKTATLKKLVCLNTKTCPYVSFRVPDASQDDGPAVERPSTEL

Sequence of 5-hydroxytryptamine receptor 6 (P50406 whole entry): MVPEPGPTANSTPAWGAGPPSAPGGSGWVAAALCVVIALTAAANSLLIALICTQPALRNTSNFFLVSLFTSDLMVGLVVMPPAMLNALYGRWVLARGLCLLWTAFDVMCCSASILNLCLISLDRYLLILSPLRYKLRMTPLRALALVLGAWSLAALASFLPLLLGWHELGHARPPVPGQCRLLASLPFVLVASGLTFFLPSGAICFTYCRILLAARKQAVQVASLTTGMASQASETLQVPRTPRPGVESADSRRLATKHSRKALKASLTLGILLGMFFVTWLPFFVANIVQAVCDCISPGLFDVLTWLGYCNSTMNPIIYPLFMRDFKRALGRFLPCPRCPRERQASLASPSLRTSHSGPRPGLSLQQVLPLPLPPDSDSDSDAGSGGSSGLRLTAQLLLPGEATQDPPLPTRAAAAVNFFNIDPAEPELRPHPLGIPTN

Clc1cccc(Cl)c1NC1=NCCN1 [CLONIDINE]
Not Active: IC50 [1] | IC50 [2] | Ki [2] | IC50 [3] | Ki [3] | IC50 [4] | Ki [4] | IC50 [5] | IC50 [6]

Cc1onc(O)c1CC(N)C(=O)O (racemic) [(R,S)-AMPA]
Not Active: IC50 [1] | IC50 [2] | Ki [2] | IC50 [3] | Ki [3] | IC50 [4] | Ki [4] | IC50 [5] | IC50 [6]
